From patent US9144569B2, “Methods of administering an aromatase inhibitor, prostaglandin and GnRH for regulating ovulation in cattle” (UNIVERSITY OF SASKATCHEWAN, priority 2010, dated 2015)
Marks after values point to notes of the source that are not given here.

Tests used:
[1] = test system: Hereford-cross beef heifers; experiment: Example II: 3-day letrozole regimen in heifers, ovarian ultrasonography; type: in vivo, cattle; details: for Inter-ovulatory interval / Inter-wave interval: 85 μg/kg/day iv; for Inter-wave interval: mean±SEM
Description: Hereford-cross beef heifers, 14 to 20 months of age and weighing between 233 and 404 kg, were chosen from a herd of 50 animals maintained in outdoor corrals at the University of Saskatchewan Goodale Research Farm (52° North and 106° West). Heifers were fed alfalfa/grass hay and grain to gain approximately 1.3 kg per day and had water ad libitum during the experimental period from May to July. Heifers were initially examined by transrectal ultrasonography (7.5 MHz linear-array transducer, Aloka SSD-900; Tokyo, Japan) to confirm that they were postpubertal by the presence of a CL [33].
Four days after follicular ablation, heifers were given 500 μg of cloprostenol (PGF, Estrumate, Schering-Plough Animal Health, Pointe-Claire, QC, Canada) intramuscularly (im) to induce regression of the CL and to synchronize ovulation. The experiment was performed in two replicates (n=20-27 per replicate) and each heifer was used only once. In replicate 1, heifers were assigned randomly at the time of ovulation (Day 0) to the following groups and given a 3-day regimen of letrozole from Days 1 to 3 (n=5), Days 3 to 5 (n=5), Days 5 to 7 (n=5), or no treatment (control group, n=5). In replicate 2, heifers were similarly assigned to groups and given letrozole from Days 1 to 3, (n=5), Days 3 to 5 (n=4), or Days 5 to 7 (n=4), but untreated control heifers were arranged in three sub-groups to serve as contemporaneous controls for each letrozole-group during intensive blood sampling periods (i.e., control Days 1 to 3, n=4; control Days 3 to 5, n=4; and control Days 5 to 7, n=5). For practical purposes, the total dose of letrozole (250 μg/kg) was calculated on the basis of an average weight of 350 kg for all heifers and administered intravenously in daily divided doses over 3 days (85 μg/kg per day). For intravenous injection, letrozole was prepared in 95% ethanol to a final concentration of 5 mg/ml, resulting in an injection volume of 6 mL/day.
Ultrasound examinations were recorded on a sketch sheet in which each ovary and its structures (CL [37] and follicles ≧4 mm in diameter) were represented in size and relative location. Ovulation was defined as the disappearance of any follicle ≧8 mm between two consecutive daily examinations, and was confirmed by the subsequent development of a CL [39]. Follicular wave emergence was defined retrospectively as the day when the dominant follicle was first identified at a diameter of 4 or 5 mm. If the dominant follicle was not identified until it reached 6 or 7 mm, the previous day was considered the day of follicular wave emergence. The dominant follicle of a wave was defined as the largest antral follicle of that wave after deviation, and the first subordinate follicle as the second largest antral follicle originated from the same wave. The day of onset of follicular and luteal regression was defined as the first day of an apparent constant decrease in follicular and luteal diameters, respectively.
Statistical analyses were done using the Statistical Analysis System software package (SAS Learning Edition 9.1, 2006; SAS Institute Inc., Cary, N.C., USA). Time-series hormone data, plasma letrozole concentration, and follicular and luteal diameter profiles were analysed by repeated measures, using the PROC MIXED procedure. The main effects were treatment, time, and their interactions. […] Single point measurements (interwave and interovulatory intervals, interval from ovulation to onset of CL regression, mean and basal LH concentrations, LH pulse amplitude and frequency, and pharmacokinetic parameters for letrozole) were analysed by analysis of variance. […] If significant main effects or interactions (P≦0.05) were detected, Tukey's post-hoc test was used for multiple comparisons.

circulating estradiol = details: boars [56]; cited from earlier work
plasma FSH = experiment: Example I: plasma FSH by double-antibody radioimmunoassay after single iv dose; type: in vivo, cattle; details: by 72 hours after single iv dose, doses combined; P<0.03
Description: Heifers in which a CL was detected during the initial examination were given […] cloprostenol (PGF, Estrumate™, Schering-Plough Animal Health, Pointe-Claire, QC, Canada) intramuscularly (im) to induce regression of the CL and to synchronize ovulation. Heifers were examined daily by transrectal ultrasonography to detect ovulation. Transvaginal ultrasound-guided follicular aspiration of follicles ≧5 mm was performed five to eight days after ovulation to synchronize wave emergence. Heifers were examined daily by transrectal ultrasonography to detect follicular wave emergence, which was expected 1 to 1.5 days after follicular ablation. […] For practical purposes, the dose of letrozole was calculated based on an average weight of 400 kg for all heifers. […]
Statistical analyses were done using the Statistical Analysis System software package (SAS Learning Edition 9.1, 2006; SAS Institute Inc., Cary, N.C., USA). Time-series hormone data, plasma letrozole concentration, and follicular diameter profiles were analyzed by repeated measures, using the PROC MIXED procedure. […]

Q: For `N#Cc1ccc(C(c2ccc(C#N)cc2)n2cncn2)cc1` [Letrozole, letrozole], which Inter-ovulatory interval ([1]; Days 1 to 3, n=10) is on record?
A: The Inter-ovulatory interval was 20.9 ± 0.46^a days.

Q: And the Inter-wave interval ([1]; Days 1 to 3, n=10)?
A: The Inter-wave interval was 8.9 ± 0.35^a days.

Q: And the Inter-ovulatory interval ([1]; Days 3 to 5, n=9)?
A: The Inter-ovulatory interval was 20.1 ± 0.49^a days.

Q: What about the Inter-wave interval ([1]; Days 3 to 5, n=9) of the same compound?
A: The Inter-wave interval was 10.0 ± 0.37^ab days.

Q: What about the Inter-ovulatory interval ([1]; Days 5 to 7, n=9) of the same compound?
A: The Inter-ovulatory interval was 21.2 ± 0.49^a days.

Q: What about the Inter-wave interval ([1]; Days 5 to 7, n=9) of the same compound?
A: The Inter-wave interval was 10.7 ± 0.37^b days.

Q: What about the Inter-wave interval ([1]; Days 5 to 7, n=9, listed as letrozole) of the same compound?
A: The Inter-wave interval was 10.7 days.

Q: And the “growth of the extant dominant follicle compared to controls” value ([1]; 3-day regimen, treatment groups combined (n=28) vs untreated, P<0.01)?
A: The value was “grew longer and to a greater diameter”.

Q: And the “diameter profile of the largest subordinate follicle compared to controls” value (“diameter profile … compared to controls” for short) ([1]; treated Days 1 to 3, P<0.05)?
A: The value was “larger”.

Q: What about the “diameter profile … compared to controls” value ([1]; treated Days 3 to 5) of the same compound?
A: Its value is “intermediate”.

Q: What about the “diameter profile … compared to controls” value ([1]; treated Days 5 to 7) of the same compound?
A: The value was “intermediate”.

Q: What about the “reduction in circulating estradiol concentrations” value (circulating estradiol) of the same compound?
A: Its value is 88%.

Q: What about the “plasma FSH concentrations compared to controls” value (plasma FSH) of the same compound?
A: The value was “lower”.
